Measurements as given in article PMC6792352, “Limited Chemical Structural Diversity Found to Modulate Thyroid Hormone Receptor in the Tox21 Chemical Library” (Environmental Health Perspectives, 2019).
Where a name gives a salt, the structure may show the parent alone. Read-outs that look alike come from different tables or passages of the source.

Columns and labels:
[1] = system: thyroid hormone receptor (endogenous TRα and TRβ); assay: GH3-TRE-Antag primary qHTS, luciferase reporter, antagonist mode with 1 nM T3 (TOX21_TR_LUC_GH3_Antagonist, aeid 804); format: cell-based, rat
GH3-TRE-Luc cell line [2] = assay: GH3-TRE-Via cell viability, CellTiter-Fluor (TOX21_TR_LUC_GH3_Antagonist_viability, aeid 805)
in vitro [3] = settings: rat, gh3-tre-luc cells
GH3-TRE-Luc cell line [4] = settings: for TR_LUC_GH3_Antagonist_viability hitc: rat, 24 h
[5] = molecular target: thyroid hormone receptor (endogenous TRα and TRβ); assay: GH3-TRE-Ag primary qHTS, luciferase reporter, agonist mode (TOX21_TR_LUC_GH3_Agonist, aeid 803); format: cell-based, rat; settings: for AC50: antagonist candidates, inactive samples arbitrarily set to AC50=1,000 μM, read-out: GH3-TRE-Ag AC50; for GH3-TRE-Ag AC50 hitc: hit call from tcpl
in vitro [6] = settings: rat
[7] = system: Tox21 cell viability assays (different cell types); assay: Global cytotoxicity: eighteen Tox21 cell viability assays; format: cell-based
[8] = system: thyroid hormone receptor (endogenous TRα and TRβ); assay: GH3-TRE-Ag-Followup confirmation (TOX21_TR_LUC_GH3_Agonist_Followup, aeid 2226); format: cell-based, rat; settings: for GH3-TRE-Ag-Followup hitc: hit call from tcpl; for AC50: read-out: GH3-TRE-Ag-Followup AC50
[9] = system: thyroid hormone receptor (TR); assay: Classification of TR actives across characterization assays (TR-Ag / RXR-Ag; TR model binary); parameters: key to Categorization Code: FP, false positive; settings: TR agonist characterization
Description: Active rate comparison between receptors. […]; [Kleinstreuer et al. 2017]). We first removed chemicals classified as pharmaceuticals because these sets of chemicals are biased toward drugs targeting estrogen receptors and androgen receptors. […]. For TR, we cross-referenced these same chemicals for testing against TR and used candidate chemicals in Tables 2 and 3 to define active rates.
Complete results from both GH3-TRE qHTS agonist, antagonist, and viability mode for the 8,305 compounds are provided in Excel Table S2. […]. […]. Together with some potential false negatives, these chemicals, totaling 84 in all, were screened for activity in a series of assays for confirmation in the GH3-TRE-Ag assay; specificity screening in the TRβ-UAS-bla HEK 293T and RXRα-UAS-bla HEK 293T mammalian one-hybrid assays; viability assays for the HEK293T parental cell line; and orthogonal screening in two TR:coactivator recruitment assays, TRa-coa and TRb-coa. […].

human RXRα = molecular target: T1, human RXRα (Homo sapiens, UniProt P19793); assay: RXRa-bla-Ag mammalian one-hybrid beta-lactamase assay (TOX21_TR_RXR_BLA_Agonist_Followup_ratio, aeid 2253); format: cell-based; settings: for tr-followup-rxr-bla-agonist-1 hitc: hit call from tcpl; for Emax: read-out: EMax (% of Control) tr-followup-rxr-bla-agonist-1; for AC50: read-out: tr-followup-rxr-bla-agonist-1 AC50
T1 construct: host or cells: GeneBLAzer UAS-bla HEK 293T
T1 sequence (P19793 227-458 limits assumed): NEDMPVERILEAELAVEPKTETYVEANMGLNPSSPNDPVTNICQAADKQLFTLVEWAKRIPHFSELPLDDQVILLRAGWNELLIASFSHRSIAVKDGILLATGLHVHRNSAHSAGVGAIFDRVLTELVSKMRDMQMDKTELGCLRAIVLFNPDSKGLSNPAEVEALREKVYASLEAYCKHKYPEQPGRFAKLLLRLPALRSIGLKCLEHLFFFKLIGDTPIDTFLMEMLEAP

[10] = molecular target: T2, human TRβ ligand-binding domain (Homo sapiens, UniProt P10828); assay: TRb-coa LanthaScreen TR-FRET coactivator (SRC-2 peptide) recruitment, agonist (TOX21_TRB_COA_Agonist_Followup_ratio, aeid 2244); format: biochemical; parameters: host or cells: GeneBLAzer UAS-bla HEK 293T; settings: for AC50 / TRb-coa hitc: agonist; for AC50: read-out: TRb-coa AC50; for TRb-coa hitc: hit call from tcpl; for Emax: read-out: EMax (% of Control) trb-coa-agonist-followup-1
T2 sequence (P10828 217-461 limits assumed): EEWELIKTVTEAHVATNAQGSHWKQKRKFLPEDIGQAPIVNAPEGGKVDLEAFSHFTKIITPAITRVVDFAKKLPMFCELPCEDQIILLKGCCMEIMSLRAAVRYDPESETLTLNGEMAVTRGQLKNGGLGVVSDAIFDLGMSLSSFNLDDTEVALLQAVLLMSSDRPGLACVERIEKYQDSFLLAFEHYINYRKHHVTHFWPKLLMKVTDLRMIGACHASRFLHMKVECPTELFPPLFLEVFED

[11] = molecular target: T3, TRα ligand-binding domain (Homo sapiens, UniProt P10827); assay: TRa-coa LanthaScreen TR-FRET coactivator (SRC-2 peptide) recruitment, agonist (TOX21_TRA_COA_Agonist_Followup_ratio, aeid 2230); format: biochemical; settings: for AC50 / TRa-coa hitc: agonist; for AC50: read-out: TRa-coa AC50; for TRa-coa hitc: hit call from tcpl; for Emax: read-out: EMax (% of Control) tra-coa-agonist-followup-1
T3 construct: the receptor LBDs expressed as glutathione S-transferase (GST) fusion proteins; purchased
T3 sequence (P10827 163-410 isoform P10827-2 limits assumed, other chains not shown): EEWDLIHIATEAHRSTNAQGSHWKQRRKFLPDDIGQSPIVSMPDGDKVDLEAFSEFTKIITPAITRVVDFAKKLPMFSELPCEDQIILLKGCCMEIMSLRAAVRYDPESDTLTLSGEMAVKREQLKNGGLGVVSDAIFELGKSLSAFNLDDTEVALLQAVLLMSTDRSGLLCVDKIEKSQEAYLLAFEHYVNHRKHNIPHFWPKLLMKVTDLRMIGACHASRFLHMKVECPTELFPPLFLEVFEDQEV

[12] = molecular target: T2, human TRβ ligand-binding domain; assay: TRb-bla agonist mammalian one-hybrid beta-lactamase assay (TOX21_TRB_BLA_Agonist_Followup_ratio, aeid 2236); format: cell-based; parameters: host or cells: GeneBLAzer UAS-bla HEK 293T; settings: for AC50 / TRb-bla hitc: agonist; for AC50: read-out: TRb-bla AC50; for TRb-bla hitc: hit call from tcpl; for Emax: read-out: EMax (% of Control) trb-bla-agonist-followup-1
[13] = Table S8, read-out: Average AC50 (uM) GH3-TRE-Antag
[14] = antagonist mode, 1 nM T3, read-out: GH3-TRE-Antag AC50
[15] = Rattus norvegicus, read-out: TR_LUC_GH3_Antagonist_viability AC50 (uM)

CCN(CC)C(=O)N[C@@H]1C=C2c3cccc4[nH]cc(c34)C[C@@H]2N(C)C1 [(-)-(5S,8R)-Lisuride]
resp_max GH3-TRE-Antag ([1]; Table S8): 34.7
resp_max GH3-TRE-Via (GH3-TRE-Luc cell line [2]; Table S8): 42.3

CC[C@]12CCCN3CCc4c(n(c5ccccc45)C(=O)C1)[C@@H]32 [(-)-Eburnamonine]
CC50 at 24 h (in vitro [3]; AC50 (uM) modified / 1000): 7.18 µM
resp_max GH3-TRE-Antag ([1]; Table S8): 88.8
AC50 [1, 13]: 6.85 µM
AC50 (GH3-TRE-Luc cell line [4]): 7.18 µM
resp_max GH3-TRE-Via (GH3-TRE-Luc cell line [4]): 66.2

O=C1NCN(c2ccccc2)C12CCN(CCCOc1ccc(F)cc1)CC2 [AMI-193, reference compound]
AC50 [1, 14]: 15.8 µM
AC50 (GH3-TRE-Luc cell line [2]; read-out: GH3-TRE-Via AC50, inactive samples arbitrarily set to AC50=1,000 μM): 14.1 µM
AC50 [5]: > 92 µM

CC[C@H](O)C(C[C@H](C)N(C)C)(c1ccccc1)c1ccccc1 [(-)-alpha-Methadol hydrochloride]
CC50 at 24 h (in vitro [3]; AC50 (uM) modified / 1000, Tox21_110001=Tox21_112827, viability, 1 nM T3 present, 24 h): 43.2 µM
resp_max GH3-TRE-Antag ([1]; Table S8): 76.3
AC50 [1, 13]: 58 µM
resp_max GH3-TRE-Via (GH3-TRE-Luc cell line [2]; Table S8): 67.0
AC50 (GH3-TRE-Luc cell line [2]; read-out: Average AC50 GH3-TRE-Via, Table S8, inactive set to 1000): 43.2 µM

CCOC(=O)C1=C(COCCN)NC(C)=C(C(=O)OC)C1c1ccccc1Cl (stereo not shown) [Amlodipine besylate, reference compound]
AC50 at 24 h (in vitro [6]): 2.15 µM
AC50 [1, 14]: 4.56 µM
AC50 [5]: > 92 µM

COC(=O)C1=C(C)NC(C)=C(C(=O)OCCN2CCN(C(c3ccccc3)c3ccccc3)CC2)C1c1cccc([N+](=O)[O-])c1 (stereo not shown) [Manidipine dihydrochloride]
CC50 at 24 h (in vitro [3]; AC50 (uM) modified / 1000): 9.06 µM
AC50 [7]: 18.6 µM
Active in global cytotoxicity assays (%) [7]: 28.8%
AC50 [1, 14]: 7.4 µM
AC50 [5]: > 92 µM
AC50 (GH3-TRE-Luc cell line [4]): 9.06 µM

COc1ccc(OC)c(C(O)C(C)N)c1 (stereo not shown) [Methoxamine hydrochloride]
EMax (% of Control) gh3-tre-agonist-followup-1_agonist [8]: 29.2 % of Control
GH3-TRE-Ag-Followup hitc [8]: 1
AC50 [8]: 23.4 µM
CC50 at 24 h (in vitro [3]; AC50 (uM) modified / 1000): > 50 µM
Categorization Code [9]: FP
GLOBAL CYTOTOXICITY cytotox.median [7]: >92
GLOBAL CYTOTOXICITY cytotox.number_Active [7]: 0
tr-followup-rxr-bla-agonist-1 hitc (human RXRα): 0
Emax (human RXRα): -0.7%
AC50 (human RXRα): > 92 µM
AC50 (GH3-TRE-Luc cell line [2]; [15]): > 92 µM
AC50 [10]: > 92 µM
TRb-coa hitc [10]: 0
Emax [10]: 1.5%
AC50 [11]: > 92 µM
TRa-coa hitc [11]: 0
Emax [11]: 0.282%
AC50 [12]: > 92 µM
TRb-bla hitc [12]: 0
Emax [12]: 7.9%
EMax (% of Control) gh3-tre-agonist [5]: 25.7 % of Control
GH3-TRE-Ag AC50 hitc [5]: 1
TR_LUC_GH3_Antagonist_viability hitc (GH3-TRE-Luc cell line [4]): 0

CCC(=C(CC)c1ccc(O)cc1)c1ccc(O)cc1 [(Z,E)-Diethylstilbestrol, reference compound]
AC50 [1, 14]: 17.1 µM
AC50 [5]: > 92 µM
AC50 (GH3-TRE-Luc cell line [4]): 12.2 µM

NCC(=O)CCC(=O)O [Aminolevulinic acid hydrochloride]
EMax (% of Control) gh3-tre-agonist-followup-1_agonist [8]: 43.5 % of Control
GH3-TRE-Ag-Followup hitc [8]: 1
AC50 [8]: 22.5 µM
CC50 at 24 h (in vitro [3]; AC50 (uM) modified / 1000): > 50 µM
Categorization Code [9]: FP
GLOBAL CYTOTOXICITY cytotox.median [7]: >92
GLOBAL CYTOTOXICITY cytotox.number_Active [7]: 0
tr-followup-rxr-bla-agonist-1 hitc (human RXRα): 0
Emax (human RXRα): 13%
AC50 (human RXRα): > 92 µM
AC50 (GH3-TRE-Luc cell line [2]; [15]): > 92 µM
AC50 [10]: > 92 µM
TRb-coa hitc [10]: 0
Emax [10]: 3.6%
AC50 [11]: > 92 µM
TRa-coa hitc [11]: 0
Emax [11]: 1.1%
AC50 [12]: > 92 µM
TRb-bla hitc [12]: 0
Emax [12]: 12.7%
EMax (% of Control) gh3-tre-agonist [5]: 29.9 % of Control
GH3-TRE-Ag AC50 hitc [5]: 1
TR_LUC_GH3_Antagonist_viability hitc (GH3-TRE-Luc cell line [4]): 0
